Source: ChEMBL document CHEMBL1201862, “PubChem BioAssay data set” (2004)
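A five-concentration, 48-hour dose response in 96-well plates underlies each endpoint, interpolated linearly between surrounding concentrations. At the GI50, growth is halved.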 Active and inactive are the calls of the source. Cut-off read from the data, not from the text of the source: active = GI50 up to about 1.1 µM and inactive = higher.

Legend:
Assay in all cases: NCI anticancer screen, dose series, 48 h
RPMI-8226 = test system: RPMI-8226
SN12C = test system: SN12C
M14 = test system: M14
HCT-116 = test system: HCT-116
HOP-92 = test system: HOP-92
SK-MEL-28 = test system: SK-MEL-28
UACC-257 = test system: UACC-257
NCI-H460 = test system: NCI-H460
OVCAR-5 = test system: OVCAR-5
SK-OV-3 = test system: SK-OV-3
SK-MEL-2 = test system: SK-MEL-2
SW-620 = test system: SW-620
MOLT-4 = test system: MOLT-4
HT-29 = test system: HT-29
SF-268 = test system: SF-268
K562 = test system: K562

Measured: GI50

N#CC1=C(c2ccccc2)NNC(c2ccc(Cl)cc2)CC1=O (centres undefined)
inactive: RPMI-8226 29.9 µM | SN12C 45.5 µM | M14 25.6 µM | HCT-116 49.3 µM | HOP-92 43.3 µM | SK-MEL-28 91.4 µM | UACC-257 45 µM | NCI-H460 36.1 µM | OVCAR-5 37.1 µM | SK-OV-3 44.4 µM | SK-MEL-2 29.4 µM | SW-620 33.5 µM | MOLT-4 58.7 µM | HT-29 30.8 µM | SF-268 50.8 µM

CC(=O)OC1CC[C@@]2(C)C(CC(OC3OC(CO)C(O)C(O)C3O)[C@]3(C)C2CCC24CC23CC[C@H]4C(C)CC(O)[C@@H](O)C(C)(C)O)C1(C)C (some centres undefined)
inactive: RPMI-8226 10.3 µM | SN12C 12.7 µM | M14 12 µM | HCT-116 9.91 µM | HOP-92 10 µM | SK-MEL-28 9.77 µM | UACC-257 11.7 µM | K562 15.4 µM | NCI-H460 18.8 µM | OVCAR-5 > 50 µM | SK-OV-3 > 50 µM | SK-MEL-2 10.3 µM | SW-620 16.6 µM | MOLT-4 11.4 µM | HT-29 16.9 µM | SF-268 18.4 µM

O=C(Cn1ccnc1[N+](=O)[O-])c1ccc(F)cc1
inactive: RPMI-8226 > 100 µM | SN12C > 100 µM | M14 > 100 µM | HOP-92 > 100 µM | SK-MEL-28 > 100 µM | UACC-257 > 100 µM | K562 > 100 µM | NCI-H460 > 100 µM | OVCAR-5 > 100 µM | SK-OV-3 > 100 µM | SK-MEL-2 > 100 µM | SW-620 > 100 µM | MOLT-4 > 100 µM | HT-29 > 100 µM | SF-268 > 100 µM

C/C(=N/Nc1ccc([N+](=O)[O-])cc1[N+](=O)[O-])C(CC(C(=O)NCc1ccccc1)/C(C)=N\Nc1ccc([N+](=O)[O-])cc1[N+](=O)[O-])C(=O)NCc1ccccc1 (centres undefined)
inactive: RPMI-8226 14.7 µM | SN12C 4.05 µM | M14 8.04 µM | HCT-116 4.88 µM | HOP-92 2.88 µM | SK-MEL-28 7.8 µM | UACC-257 5.21 µM | NCI-H460 5.51 µM | OVCAR-5 19.4 µM | SK-OV-3 15.6 µM | SK-MEL-2 10.1 µM | SW-620 10.8 µM | HT-29 6.14 µM | SF-268 4.42 µM

CC(C)NC(=O)OCc1c2c(n(C)c1COC(=O)NC(C)C)-c1ccccc1CC2
inactive: RPMI-8226 3.23 µM | SN12C 13 µM | HCT-116 10 µM | HOP-92 6.73 µM | SK-MEL-28 13 µM | UACC-257 15.2 µM | K562 4.26 µM | NCI-H460 14.1 µM | OVCAR-5 17.2 µM | SK-OV-3 15.7 µM | SK-MEL-2 14.5 µM | SW-620 9.2 µM | MOLT-4 2.61 µM | HT-29 15.2 µM | SF-268 10.2 µM

N#C/N=C(/N)NCc1ccccc1
inactive: RPMI-8226 > 100 µM | SN12C > 100 µM | M14 > 100 µM | HCT-116 > 100 µM | HOP-92 > 100 µM | SK-MEL-28 > 100 µM | UACC-257 > 100 µM | NCI-H460 > 100 µM | OVCAR-5 > 100 µM | SK-OV-3 > 100 µM | SK-MEL-2 > 100 µM | MOLT-4 > 100 µM | HT-29 > 100 µM | SF-268 > 100 µM

N#COc1ccc(Oc2ccc(OC#N)cc2)cc1
inactive: RPMI-8226 32 µM | SN12C 55.5 µM | M14 > 100 µM | HCT-116 > 100 µM | HOP-92 > 100 µM | SK-MEL-28 > 100 µM | UACC-257 > 100 µM | K562 36.7 µM | NCI-H460 28.2 µM | OVCAR-5 > 100 µM | SK-OV-3 > 100 µM | SK-MEL-2 > 100 µM | MOLT-4 72.4 µM | HT-29 70.6 µM | SF-268 > 100 µM
